Measurements: patent US12435061B2 (priority 2020, dated 2025)
Counter-ions that a name gives are not always drawn. Like-named read-outs stand apart in the source and are kept apart here.

Biological target: hTRPV3 (Homo sapiens (Human), UniProt Q8NET8)
Assay: Whole-cell patch clamp, hTRPV3 Phase 1 / Phase 2 currents
Assay type: cell-based
In short: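 Currents are activated by 20 μM 2-APB or by perfusate at 28 °C or warmer, in Ringer's solution, and quantified at ±80 mV.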

[1] = Phase 1 current, inward, whole-cell patch clamp, read-out: hTRPV3 Patch P1 Inwd
[2] = Phase 1 current, read-out: hTRPV3 (nM) (Phase 1)
[3] = Phase 2 current, inward, whole-cell patch clamp, read-out: hTRPV3 Patch P2 Inwd
[4] = Phase 2 current, read-out: hTRPV3 (nM) (Phase 2)
[5] = Phase 1 current, human TRPV3, read-out: hTRPV3 (nM) Phase 1

Chain of hTRPV3 (Q8NET8 whole entry): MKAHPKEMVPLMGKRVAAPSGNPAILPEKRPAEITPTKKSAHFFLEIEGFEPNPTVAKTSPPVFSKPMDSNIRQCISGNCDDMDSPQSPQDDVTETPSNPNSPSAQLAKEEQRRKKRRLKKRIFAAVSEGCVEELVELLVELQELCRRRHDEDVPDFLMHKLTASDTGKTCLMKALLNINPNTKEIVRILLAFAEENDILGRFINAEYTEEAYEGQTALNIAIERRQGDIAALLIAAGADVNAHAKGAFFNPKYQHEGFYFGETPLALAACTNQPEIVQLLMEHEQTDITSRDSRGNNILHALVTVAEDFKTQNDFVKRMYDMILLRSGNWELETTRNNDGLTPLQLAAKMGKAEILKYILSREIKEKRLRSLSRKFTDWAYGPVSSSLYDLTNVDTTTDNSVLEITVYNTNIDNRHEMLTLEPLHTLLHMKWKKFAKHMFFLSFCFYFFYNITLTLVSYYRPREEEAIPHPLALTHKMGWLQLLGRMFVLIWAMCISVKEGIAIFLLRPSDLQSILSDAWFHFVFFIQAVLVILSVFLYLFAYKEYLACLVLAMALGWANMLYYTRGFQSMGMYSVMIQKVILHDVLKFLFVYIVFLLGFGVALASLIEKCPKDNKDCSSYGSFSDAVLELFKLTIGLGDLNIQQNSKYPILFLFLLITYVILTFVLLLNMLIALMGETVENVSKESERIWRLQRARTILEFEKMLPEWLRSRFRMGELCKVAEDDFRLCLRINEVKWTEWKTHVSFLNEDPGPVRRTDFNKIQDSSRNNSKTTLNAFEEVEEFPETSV

SMILES: NC(=O)c1cc(-c2ccccc2)cnc1N1CC[C@@H](Nc2ccc(C(F)(F)F)cn2)C1 [Compound 1-378, (R)-5-phenyl-2-(3-(5-(trifluoromethyl)pyridin-2-ylamino)pyrrolidin-1-yl)nicotinamide]
- IC50 [1]: > 1000 nM
- IC50 [2]: > 3200 nM
- IC50 [3]: > 1000 nM
- IC50 [4]: > 3200 nM

SMILES: NCc1ccc(N2CC[C@H](Oc3ccc(C(F)(F)F)cn3)C2)c(C(N)=O)c1 [Compound 1-35]
- IC50 [1]: > 1000 nM

SMILES: Cc1ccccc1-c1ccc(N2CC[C@H](Oc3ncccc3C)C2)c(CCO)c1 [Compound 1-198, (S)-2-(2′-methyl-4-(3-(3-methylpyridin-2-yloxy)pyrrolidin-1-yl)biphenyl-3-yl)ethanol]
- IC50 [1]: 100 to 1000 nM
- IC50 [2]: 184 nM

SMILES: OCCc1cc(C(O)c2cccc(F)c2)ccc1N1CC[C@H](Oc2ncccc2Cl)C1 (stereo partly drawn) [Compound 1-312, 2-(2-((S)-3-(3-chloropyridin-2-yloxy)pyrrolidin-1-yl)-5-((3-fluorophenyl)(hydroxy)methyl)phenyl)ethanol]
- IC50 [1]: > 1000 nM
- IC50 [2]: ~1920 nM

SMILES: NC(=O)c1nc(-c2ccccc2)ccc1N1CC[C@@H](Oc2ccc(C(F)(F)F)cn2)C1 [Compound 1-98, (R)-6-phenyl-3-(3-(5-(trifluoromethyl)pyridin-2-yloxy)pyrrolidin-1-yl)picolinamide]
- IC50 [1]: 100 to 1000 nM
- IC50 [2]: 479 nM

SMILES: Cc1cccc(CN2CCC(c3ccc(Oc4ccccc4C(C)C)cc3CO)C2)n1 (stereo not drawn) [Compound 2-94, (5-(2-isopropylphenoxy)-2-(1-((6-methylpyridin-2-yl)methyl)pyrrolidin-3-yl)phenyl)methanol hydrochloride]
- IC50 [5]: 339 nM
- IC50 [1]: 100 to 1000 nM

SMILES: CC(C)c1ccccc1Oc1ccc(C2CCN(Cc3ncccc3Cl)C2)c(CO)c1 (stereo not drawn) [Compound 2-92, (2-(1-((3-chloropyridin-2-yl)methyl)pyrrolidin-3-yl)-5-(2-isopropylphenoxy)phenyl)methanol hydrochloride]
- IC50 [5]: 592 nM
- IC50 [1]: 100 to 1000 nM

SMILES: O=C(c1ccc(Cl)cc1)c1ccc(N2CC[C@H](Oc3ncccc3Cl)C2)c(CO)c1 [Compound 1-288, (S)-(4-chlorophenyl)(4-(3-(3-chloropyridin-2-yloxy)pyrrolidin-1-yl)-3-(hydroxymethyl)phenyl)methanone]
- IC50 [1]: 10 to 100 nM

SMILES: COC(C)c1ccccc1Oc1ccc(N2CC[C@H](Oc3ccc(C)cn3)C2)c(CCO)c1 (stereo partly drawn) [Compound 1-355, 2-(5-(2-(1-methoxyethyl)phenoxy)-2-((S)-3-(5-methylpyridin-2-yloxy)pyrrolidin-1-yl)phenyl)ethanol]
- IC50 [1]: 100 to 1000 nM
- IC50 [2]: 173 nM

SMILES: CCc1ccccc1Oc1ccc(N2CC[C@H](Oc3ccc(C)cn3)C2)c(CO)n1 [Compound 1-214, (S)-(6-(2-ethylphenoxy)-3-(3-(5-methylpyridin-2-yloxy)pyrrolidin-1-yl)pyridin-2-yl)methanol]
- hTRPV3 (nM) (Phase 1) (Phase 1 current): Incomplete Block (Phase 1)

SMILES: CC(C)(C)OC(=O)N1CC=C(c2ccc(N3CC[C@H](Oc4ccc(C(F)(F)F)cn4)C3)c(CCO)c2)CC1 [Compound 1-299, (S)-tert-butyl 4-(3-(2-hydroxyethyl)-4-(3-(5-(trifluoromethyl)pyridin-2-yloxy)pyrrolidin-1-yl)phenyl)-5,6-dihydropyridine-1 (2H)-carboxylate]
- IC50 [1]: > 1000 nM
- IC50 [2]: > 3200 nM

SMILES: O=C(c1cccc(Cl)c1)c1ccc(CCO)c(N2CC[C@H](Oc3ncccc3Cl)C2)c1 [Compound 1-314, (S)-(3-chlorophenyl)(3-(3-(3-chloropyridin-2-yloxy)pyrrolidin-1-yl)-4-(2-hydroxyethyl)phenyl)methanone]
- IC50 [1]: 100 to 1000 nM
- IC50 [2]: 229 nM
- IC50 [3]: 100 to 1000 nM
- IC50 [4]: 307 nM

SMILES: NCc1cc(-c2ccccc2Cl)ccc1N1CC[C@H](Oc2ccc(C(F)(F)F)cn2)C1 [Compound 1-118, (S)-(2′-chloro-4-(3-(5-(trifluoromethyl)pyridin-2-yloxy)pyrrolidin-1-yl)biphenyl-3-yl)methanamine]
- IC50 [1]: > 1000 nM
- IC50 [2]: ~1300 nM
- IC50 [3]: > 1000 nM
- IC50 [4]: < 3200 nM

SMILES: CCc1ccccc1C(=O)c1ccc(C2CCN(C(=O)c3ncccc3Cl)C2)c(CO)c1 (stereo not drawn) [Compound 2-15, (4-(1-(3-chloropicolinoyl)pyrrolidin-3-yl)-3-(hydroxymethyl)phenyl)(2-ethylphenyl)methanone]
- IC50 [5]: > 3200 nM
- IC50 [1]: > 1000 nM

SMILES: O=C(c1ncccc1F)N1CCC(c2ccc(-c3ccccc3C3CC3)cc2CO)C1 (stereo not drawn) [Compound 2-74]
- IC50 [5]: 90.5 nM
- IC50 [1]: 10 to 100 nM
- IC50 (Phase 2 current, human TRPV3, read-out: hTRPV3 (nM) Phase 2): 54.6 nM
- IC50 [3]: 10 to 100 nM

SMILES: Cc1ccccc1-c1ccc(N2CC[C@H](Nc3ccc(C(F)(F)F)cn3)C2)c(CO)n1 [Compound 1-379, (S)-(6-o-tolyl-3-(3-(5-(trifluoromethyl)pyridin-2-ylamino)pyrrolidin-1-yl)pyridin-2-yl)methanol]
- IC50 [1]: > 1000 nM
- IC50 [2]: > 3200 nM
- IC50 [3]: > 1000 nM
- IC50 [4]: > 3200 nM

SMILES: OCc1cc(-c2ccccc2)ccc1N1CC[C@H](Oc2ccc(C(F)(F)F)nn2)C1 [Compound 1-397, (S)-(4-(3-(6-(trifluoromethyl)pyridazin-3-yloxy)pyrrolidin-1-yl)biphenyl-3-yl)methanol]
- IC50 [1]: > 1000 nM
- IC50 [2]: 2740 nM
- IC50 [3]: > 1000 nM
- IC50 [4]: 1370 nM

SMILES: NC(=O)c1cc(-c2ccccc2)ccc1N1CC[C@@H](Oc2ccccn2)C1 [Compound 1-78, (R)-4-(3-(pyridin-2-yloxy)pyrrolidin-1-yl)biphenyl-3-carboxamide]
- IC50 [1]: 100 to 1000 nM
- IC50 [2]: ~835 nM
- IC50 [3]: 100 to 1000 nM
- IC50 [4]: 402 nM

SMILES: CC(C)c1ccccc1Oc1ccc(N2CC[C@H](Oc3ccc(C#N)cn3)C2)c(CCO)c1 [Compound 1-362]
- IC50 [1]: 10 to 100 nM
- IC50 [2]: 61.2 nM

SMILES: OCc1ccc(-c2ccc(N3CC[C@H](Oc4ccc(C(F)(F)F)cn4)C3)c(CO)c2)cc1 [Compound 1-261, (S)-(4-(3-(5-(trifluoromethyl)pyridin-2-yloxy)pyrrolidin-1-yl)biphenyl-3,4′-diyl)dimethanol]
- IC50 [1]: 100 to 1000 nM
- IC50 [2]: 604 nM

SMILES: Cc1cccnc1CN1CCC(c2ccc(Oc3ccccc3C(C)C)cc2CO)C1 (stereo not drawn) [Compound 2-89, (5-(2-isopropylphenoxy)-2-(1-((3-methylpyridin-2-yl)methyl)pyrrolidin-3-yl)phenyl)methanol hydrochloride]
- IC50 [5]: 1230 nM
- IC50 [1]: > 1000 nM

SMILES: O=C(O)c1ccccc1N1CC[C@H](Oc2ccc(C(F)(F)F)cn2)C1 [Compound 1-24, (S)-2-(3-(5-(trifluoromethyl)pyridin-2-yloxy)pyrrolidin-1-yl)benzoic acid]
- IC50 [1]: > 1000 nM

SMILES: OCc1cc(-c2ccccc2)ccc1N1CC[C@H](Oc2ccc(Cl)cn2)C1 [Compound 1-147, (S)-(4-(3-(5-chloropyridin-2-yloxy)pyrrolidin-1-yl)biphenyl-3-yl)methanol]
- IC50 [1]: 100 to 1000 nM
- IC50 [2]: 171 nM

SMILES: FC(F)(F)c1ccc(O[C@H]2CCN(c3ccccc3OC3CCCC3)C2)nc1 [Compound 1-25, (S)-2-(1-(2-(cyclopentyloxy)phenyl)pyrrolidin-3-yloxy)-5-(trifluoromethyl)pyridine]
- IC50 [1]: > 1000 nM

SMILES: COC(=O)c1cc(-c2ccccc2C(C)C)ccc1C1CCN(C(=O)c2ccc(F)cn2)C1 (stereo not drawn) [Compound 2-23]
- IC50 [5]: 886 nM
- IC50 [1]: 100 to 1000 nM

SMILES: CC(C)c1ccccc1-c1ccc(C2CCN(C(=O)c3ncccc3Cl)C2)c(C(N)=O)c1 (stereo not drawn) [Compound 2-41]
- IC50 [5]: 575 nM
- IC50 [1]: 100 to 1000 nM

SMILES: COCc1ccccc1Oc1ccc(N2CC[C@H](Oc3ccc(C)cn3)C2)c(CCO)c1 [Compound 1-349, (S)-2-(5-(2-(methoxymethyl)phenoxy)-2-(3-(5-methylpyridin-2-yloxy)pyrrolidin-1-yl)phenyl)ethanol]
- IC50 [1]: 100 to 1000 nM
- IC50 [2]: 908 nM

SMILES: CC(=O)c1cc(F)ccc1Oc1ccc(N2CC[C@H](Oc3ccccn3)C2)c(CO)c1 [Compound 1-343]
- IC50 [1]: 100 to 1000 nM
- IC50 [2]: 199 nM

SMILES: OCc1cc(-c2ccccc2)ccc1N1CC[C@H](Oc2ncccc2Cl)C1 [Compound 1-126, (S)-(4-(3-(3-chloropyridin-2-yloxy)pyrrolidin-1-yl)biphenyl-3-yl)methanol]
- IC50 [3]: 100 to 1000 nM
- IC50 [4]: 369 nM

SMILES: Cc1ccc(C(=O)c2ccc(N3CC[C@H](Oc4ncccc4F)C3)c(CO)c2)cc1 [Compound 1-300, (S)-(4-(3-(3-fluoropyridin-2-yloxy)pyrrolidin-1-yl)-3-(hydroxymethyl)phenyl)(p-tolyl)methanone]
- IC50 [1]: 100 to 1000 nM
- IC50 [2]: 860 nM

SMILES: CCc1ccccc1C(O)c1ccc(N2CC[C@H](Nc3ncccc3Cl)C2)c(CCO)c1 (stereo partly drawn) [Compound 1-385, 2-(2-((S)-3-(3-chloropyridin-2-ylamino)pyrrolidin-1-yl)-5-((2-ethylphenyl)(hydroxy)methyl)phenyl)ethanol]
- IC50 [1]: > 1000 nM
- IC50 [2]: > 3200 nM

SMILES: NC(=O)c1ccccc1N1CCC(Oc2ccc3ccccc3n2)C1=O (stereo not drawn) [Compound 1-105, 2-(2-oxo-3-(quinolin-2-yloxy)pyrrolidin-1-yl)benzamide]
- IC50 [1]: > 1000 nM
- IC50 [2]: > 3200 nM

SMILES: O=C(c1ccc(N2CC[C@H](Oc3ccccn3)C2)c(CO)c1)c1ccccc1Cl [Compound 1-332, (S)-(2-chlorophenyl)(3-(hydroxymethyl)-4-(3-(pyridin-2-yloxy)pyrrolidin-1-yl)phenyl) methanone]
- IC50 [1]: > 1000 nM
- IC50 [2]: > 3200 nM
- IC50 [3]: > 1000 nM
- IC50 [4]: > 3200 nM

SMILES: OCCc1cc(C(O)c2cccc(Cl)c2)ccc1N1CC[C@H](Nc2ccc(F)cn2)C1 (stereo partly drawn) [Compound 1-392, 2-(5-((3-chlorophenyl)(hydroxy)methyl)-2-((S)-3-(5-fluoropyridin-2-ylamino)pyrrolidin-1-yl)phenyl)ethanol]
- IC50 [1]: > 1000 nM
- IC50 [2]: > 3200 nM

SMILES: Cc1ccc(C(O)c2ccc(N3CC[C@H](Oc4ncccc4Cl)C3)c(CO)c2)cc1 (stereo partly drawn) [Compound 1-287, (4-((S)-3-(3-chloropyridin-2-yloxy)pyrrolidin-1-yl)-3-(hydroxymethyl)phenyl)(p-tolyl)methanol]
- IC50 [1]: 100 to 1000 nM
- IC50 [2]: 674 nM
